Like-named read-outs stand apart in the source and are kept apart here.
What was measured:
TNP-C3H = conditions: for cytotoxische Aktivität (% 51Cr-Freisetzung): Stimulans und Target TNP-C3H, 1 x 10^-2 mol/l, 5 days
Method: (§1) 20 Millionen Responderzellen (üblicherweise C3H Milzzellen)wurden mit 1×10^6 bestrahlten (1500 rad) allogenen oder trinitrophenylierten syngenen Stimulatorzellen in einem Gesamtvolumen von 4,5 ml Kulturmedium (RPMI 1640, GIBCO Medium supplementiert mit 10mM L-Gutamin (GIBCO), Streptomycin/Penicillin (GIBCO), Streptomycin/ Penicillin (GIBCO; 100 units/ml), 0,5 % HEPES (GIBCO), 10% fötalem Kälberserum (GIBCO) und 3×10^-5 Mol/l 2-Mercaptoäthanol) 5 Tage bei 37°C in 5% CO2 incubiert. Responder-und Stimulatorzellen waren Milzzellen.
(§2) Die Kulturen wurden nach 5 Tagen auf cytotoxische Aktivität gegen Con A-aktivierte allogene oder trinitrophenylierte syngene Milzlynphoblasten in einem 4-Stunden 51Cr-Release assay in bekanntem Weise getestet.
(§3) Der Effekt in vitro (mittlere und rechte Zeichnung der Fig. 1) wurde wie folgt bestimmt: • C3H Milzzellen (2 x 10^7) wurden mit 1 x 10^6 bestrahlten und Trinitrophenylen-behandelten C3H Milzzellen (Mitte) oder 1 x 10^6 bestrahlte C57BL/6 Milzzellen (rechts) und mit den angegebenen Endkonzentrationen von Ornithin in 4,5 ml Kulturen 5 Tage inkubiert. Die cytotoxische Aktivität gegen die entsprechenden Targetzellen wurde nach 5 Tagen getestet.
(§4) C3H Milzzellen (2 x 10^7) wurden mit 1 x 10^6 bestrahlten und Trinitrophenylen-behandelten C3H Milzzellen (links) oder 1 x 10^6 bestrahlten C57BL/6 Milzzellen (rechts) in 4,5 ml Kulturen 5 Tage inkubiert. […] Die Abszisse zeigt die Endkonzentration von Ornithin in der Kultur. Die cytotoxische Aktivität gegen die entsprechenden Targetze1len wurde nach 5 Tagen bei Angreifer: Ziel-Zellen-Verhältnissen von 25:1, 5:1 und 1:1 untersucht. Figur 3 zeigt die relative cytotoxische Aktivität beim Angreifer: Ziel-Zellen-Verhältnis 25:1. (Die Kontrollantwort ohne Ornithin zeigte 54% (links) bzw. 50% (rechts) ^51Cr-release).
(§5) Die Ergebnisse geben die cytotoxische Aktivität (% ^51Cr-Freisetzung) gegen homologe Targetzellen nach 5 Tagen bei Angreifer:Targetzel len-Verältnissen von 25:1, 5:1 und 1:1 an.

[1] = system: IL 2 abhängige W-2 T-Zelllinie; conditions: control solutions with increasing amounts in culture medium
Method: (§6) Die IL 2 Titer wurden mit der IL 2 abhängigen W-2 T-Zelllinie in bekannter Weise bestimmt.
Ansteigende Konzentrationen von Ornithin wurden Kulturen von con-A-aktivierten Konzentrationen von Ornithin C3H Milzzellen (10^7 Zellen + 5 µg con-A pro ml) zugesetzt. Die erhaltenen Überstände wurden 24 h später isoliert und auf Interleukin-2 und Interferonaktivität getestet. […] C3H Milzzellkulturen mit l ug/ml con-A sowie allogene "Genischte-Lymphozyten-Kulturen" mit 10^7 nicht-bestrahltenC3H Milzzellen' plus 10^7 nicht- bestrahltenC57BL/6 Milzzellen wurden eben- falls mit steigenden Konzentrationen von Ornithin angesetzt.

[2] = system: PMA-aktivierte EL-4 Thymomzellen; conditions: same concentrations as in Fig. 5
Method: as §6
Die Überstände werden aus einer IL-2 produzierenden EL-4 Thymom-Sublinie nach Induktion mit Phorbolmyristinacetat (PMA) in bekannter Weise erhalten. Es wurden 10^6 EL-4 Zellen pro ml zusammen mit 10 ng/ml PMA (SIGMA) 48 h inkubiert. Die Überstände wurden gesammelt und bei -20°C gefroren gelagert.
(§7) Die resultierenden Überstände wurden dann durch Zentrifugation isoliert und auf Interleukin-2 und Interferon- Aktivität getestet, wie im Methodenteil beschrieben.

[3] = system: con-A-aktivierte C3H Milzzellen; conditions: 9 x 10^-3 mol/l; Con A 5 µg/ml; 24 h (Fig. 5)
Method: as §6, §7
Ansteigende Konzentrationen von Ornithin wurden Kulturen von con-A-aktivierten Konzentrationen von Ornithin C3H Milzzellen (10^7 Zellen + 5 µg con-A pro ml) zugesetzt. Die erhaltenen Überstände wurden 24 h später isoliert und auf Interleukin-2 und Interferonaktivität getestet.

C57BL/6 = conditions: Stimulans und Target C57BL/6, 1 x 10^-2 mol/l, 5 days
Method: as §1, §2, §3, §4, §5

[4] = Angreifer:Targetzellen 1:1, control without additive 16,3
[5] = Angreifer:Targetzellen 5:1, control without additive 32,0
[6] = Angreifer:Targetzellen 25:1, control without additive 54,9
[7] = summary statement, see Tabelle I
[8] = Angreifer:Targetzellen 1:1, control without additive 4,8
[9] = Angreifer:Targetzellen 5:1, control without additive 17,7
[10] = Angreifer:Targetzellen 25:1, control without additive 33,5

C[C@H](N)C(=O)O [L-Alanin]
Hemmwirkung auf die Aktivierung cytotoxischer T-Lymphozyten (TNP-C3H): nicht zu beobachten

NCCC[C@H](N)C(=O)O [L-Ornithin]
Interleukin-2-Aktivität (of the substance itself) [1]: keine Interleukin-2 oder Interferon-Aktivität
Interleukin-2-Produktion von PMA-aktivierten EL-4 Thymomzellen [2]: nicht supprimiert
Effekt auf die Produktion von IL-2 [3]: keinen wesentlichen Effekt

NCCCCN [Putrescin]
Hemmwirkung auf die Aktivierung cytotoxischer T-Lymphozyten (TNP-C3H): nicht zu beobachten

N[C@@H](Cc1c[nH]cn1)C(=O)O [L-Hystidin, L-Histidin]
cytotoxische Aktivität (% 51Cr-Freisetzung) (TNP-C3H; [4]): 11,1%
cytotoxische Aktivität (% 51Cr-Freisetzung) (TNP-C3H; [5]): 27,8%
cytotoxische Aktivität (% 51Cr-Freisetzung) (TNP-C3H; [6]): 48,5%
Hemmwirkung auf die Aktivierung cytotoxischer T-Lymphozyten (TNP-C3H; [7]): nicht zu beobachten
cytotoxische Aktivität (% 51Cr-Freisetzung) (C57BL/6; [8]): 5,1%
cytotoxische Aktivität (% 51Cr-Freisetzung) (C57BL/6; [9]): 11,4%
cytotoxische Aktivität (% 51Cr-Freisetzung) (C57BL/6; [10]): 24,5%

NCCCC[C@H](N)C(=O)O [L-Lysin]
cytotoxische Aktivität (% 51Cr-Freisetzung) (TNP-C3H; [4]): 21,5%
cytotoxische Aktivität (% 51Cr-Freisetzung) (TNP-C3H; [5]): 39,9%
cytotoxische Aktivität (% 51Cr-Freisetzung) (TNP-C3H; [6]): 60,7%
Hemmwirkung auf die Aktivierung cytotoxischer T-Lymphozyten (TNP-C3H; [7]): nicht zu beobachten
cytotoxische Aktivität (% 51Cr-Freisetzung) (C57BL/6; [8]): 9,0%
cytotoxische Aktivität (% 51Cr-Freisetzung) (C57BL/6; [9]): 19,1%
cytotoxische Aktivität (% 51Cr-Freisetzung) (C57BL/6; [10]): 41,7%

— EP0199291A1 (priority 1985, dated 1986)
